# Source: PubChem BioAssay AID330 (DTP/NCI, 2004)
# “And” between values parts separate entries of the source, which are not always exact repeats. Equal values may be shown once. Inconclusive results and toxic doses are left out.
# System: P388 leukemia ip, CD2F1 mice, survival T/C
# Assay: NCI In Vivo Anticancer Drug Screen. Data for tumor model P388 Leukemia (intraperitoneal) in CD2F1 (CDF1) mice
# Settings: endpoint: median survival time, higher = longer survival
# Outline: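 Mice carrying the transplanted tumor received test compound or vehicle. Survival was recorded in each group, and the value is the treated-group measurement divided by that of the vehicle-treated control group.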
# [1] = dose: 50.0 mg/kg/injection, schedule: Q01DX009 (ip), vehicle: saline with Tween-80
# [2] = dose: 100.0 mg/kg/injection, schedule: Q01DX009 (ip), vehicle: saline with Tween-80
# [3] = dose: 200.0 mg/kg/injection, schedule: Q01DX009 (ip), vehicle: saline with Tween-80
# [4] = dose: 30.0 mg/kg/injection, schedule: Q01DX005 (ip), vehicle: saline with Tween-80
# [5] = dose: 60.0 mg/kg/injection, schedule: Q01DX005 (ip), vehicle: saline with Tween-80
# [6] = dose: 120.0 mg/kg/injection, schedule: Q01DX005 (ip), vehicle: saline with Tween-80
# [7] = dose: 240.0 mg/kg/injection, schedule: Q01DX005 (ip), vehicle: saline with Tween-80
# [8] = dose: 25.0 mg/kg/injection, schedule: Q01DX009 (ip), vehicle: saline
# [9] = dose: 25.0 mg/kg/injection, schedule: Q01DX009 (ip), vehicle: saline with Tween-80
# [10] = dose: 100.0 mg/kg/injection, schedule: Q04DX002 (ip), vehicle: Klucel (hydroxypropylcellulose) (HPC)
# [11] = dose: 200.0 mg/kg/injection, schedule: Q04DX002 (ip), vehicle: Klucel (hydroxypropylcellulose) (HPC)
# [12] = dose: 400.0 mg/kg/injection, schedule: Q04DX002 (ip), vehicle: Klucel (hydroxypropylcellulose) (HPC)
# [13] = dose: 50.0 mg/kg/injection, schedule: Q01DX005 (ip), vehicle: saline
# [14] = dose: 100.0 mg/kg/injection, schedule: Q01DX005 (ip), vehicle: saline
compound,measurement,setting,value
CC1=CC=c2ccc3c(c2[N-]1)[N-]C(C)=CC=3.CC1=CC=c2ccc3c(c2[N-]1)[N-]C(C)=CC=3.O=[N+]([O-])O.[Cu+],T/C,"dose: 6.25 mg/kg/injection, schedule: Q04DX002 (ip), vehicle: suspension in saline",101 % of control
same,T/C,"dose: 12.5 mg/kg/injection, schedule: Q04DX002 (ip), vehicle: suspension in saline",103 % of control
O=C1C(C2=CCCCC2)CCCC1C1=CCCCC1 (centres undefined),T/C,[1],89 % of control
same,T/C,[2],91 % of control
same,T/C,[3],104 % of control
NC(=O)CC(N)CO (centres undefined),T/C,"dose: 50.0 mg/kg/injection, schedule: Q01DX009 (ip), vehicle: saline",100 % of control
same,T/C,"dose: 100.0 mg/kg/injection, schedule: Q01DX009 (ip), vehicle: saline",100 % of control
same,T/C,"dose: 200.0 mg/kg/injection, schedule: Q01DX009 (ip), vehicle: saline",103 % of control
same,T/C,"dose: 400.0 mg/kg/injection, schedule: Q01DX009 (ip), vehicle: saline",101 % of control
c1ccc2oc(NCCSSCCNc3nc4ccccc4o3)nc2c1,T/C,"dose: 12.5 mg/kg/injection, schedule: Q01DX009 (ip), vehicle: other",100 % of control
same,T/C,"dose: 25.0 mg/kg/injection, schedule: Q01DX009 (ip), vehicle: other",92 % of control
same,T/C,"dose: 50.0 mg/kg/injection, schedule: Q01DX009 (ip), vehicle: other",86 % of control and 93 % of control
COC(=O)C(=O)c1c(C(=O)OC)nc2nnc(N)n2c1-c1ccc(F)cc1,T/C,[4],93 % of control
same,T/C,[5],99 % of control
same,T/C,[6],88 % of control
same,T/C,[7],93 % of control
C#CC[N+]1(C)CCC=C(C(=O)OC)C1 (centres undefined),T/C,[8],97 % of control
COc1ccc2c(c1OC)C(C(Cl)(Cl)Cl)N1CCc3cc4c(cc3C1=C2)OCO4 (centres undefined),T/C,[1],93 % of control
same,T/C,[2],90 % of control
same,T/C,[3],92 % of control
Cc1cc2nc(Cc3nc4cc(C)c(C)cc4[nH]3)[nH]c2cc1C,T/C,[9],90 % of control
same,T/C,[1],90 % of control
same,T/C,[2],100 % of control and 95 % of control
same,T/C,[3],90 % of control
CC(=O)c1ccc(N=C2C(=O)Nc3ccccc32)cc1,T/C,"dose: 12.5 mg/kg/injection, schedule: Q01DX009 (ip), vehicle: saline with Tween-80",93 % of control
same,T/C,[9],87 % of control
same,T/C,[1],89 % of control and 96 % of control
same,T/C,[2],105 % of control
same,T/C,[3],116 % of control
Nc1nc(=O)nc2[nH]c3c4cccc5cccc(c3nc12)c54,T/C,[5],96 % of control
same,T/C,[10],100 % of control
same,T/C,[6],93 % of control
same,T/C,[11],100 % of control
same,T/C,[7],100 % of control
same,T/C,[12],101 % of control
COc1ccccc1NC(=O)CC(=O)c1ccc([N+](=O)[O-])cc1,T/C,"dose: 6.25 mg/kg/injection, schedule: Q04DX003 (ip), vehicle: saline sonified",100 % of control
same,T/C,"dose: 12.5 mg/kg/injection, schedule: Q04DX003 (ip), vehicle: saline sonified",100 % of control
same,T/C,"dose: 25.0 mg/kg/injection, schedule: Q04DX003 (ip), vehicle: saline sonified",100 % of control
Cc1c2cc3c(cc2cc2c4cc5c(cc4cc[n+]12)OCO5)OCO3 (tested in a mixture with another compound),T/C,"dose: 0.44 mg/kg/injection, schedule: Q04DX003 (ip), vehicle: saline",122 % of control
same,T/C,"dose: 5.0 mg/kg/injection, schedule: Q04DX003 (ip), vehicle: saline",154 % of control
same,T/C,"dose: 7.5 mg/kg/injection, schedule: Q04DX003 (ip), vehicle: saline",150 % of control
COC1=C(C2=C(OC)C(=O)c3cc4c(c(O)c3C2=O)C(=O)OC(C)C4)C(=O)c2c(cc3c(c2O)C(=O)OC(C)C3)C1=O (centres undefined),T/C,"dose: 6.25 mg/kg/injection, schedule: Q01DX009 (ip), vehicle: saline",100 % of control
same,T/C,"dose: 12.5 mg/kg/injection, schedule: Q01DX009 (ip), vehicle: saline",98 % of control
same,T/C,[8],103 % of control
C(#C[P+]1(c2ccccc2)C=C(c2ccccc2)OC(c2ccccc2)=C1)c1ccccc1,T/C,"dose: 12.5 mg/kg/injection, schedule: Q01DX005 (ip), vehicle: saline with Tween-80",107 % of control
same,T/C,"dose: 25.0 mg/kg/injection, schedule: Q01DX005 (ip), vehicle: saline with Tween-80",102 % of control
same,T/C,"dose: 50.0 mg/kg/injection, schedule: Q01DX005 (ip), vehicle: saline with Tween-80",107 % of control
CCN(CC)CCOCCCNc1ccnc2cc(Cl)ccc12,T/C,[13],100 % of control
same,T/C,[14],103 % of control
CCOP1(=S)NNP(=S)(OCC)NN1 (centres undefined),T/C,"dose: 50.0 mg/kg/injection, schedule: Q01DX005 (ip), vehicle: Klucel (hydroxypropylcellulose) (HPC)",96 % of control
same,T/C,"dose: 100.0 mg/kg/injection, schedule: Q01DX005 (ip), vehicle: Klucel (hydroxypropylcellulose) (HPC)",93 % of control
same,T/C,"dose: 200.0 mg/kg/injection, schedule: Q01DX005 (ip), vehicle: Klucel (hydroxypropylcellulose) (HPC)",104 % of control
CCCCN(CCCC)C(Cl)=NCCC,T/C,"dose: 50.0 mg/kg/injection, schedule: Q01DX009 (ip), vehicle: Klucel (hydroxypropylcellulose) (HPC)",94 % of control
same,T/C,"dose: 100.0 mg/kg/injection, schedule: Q01DX009 (ip), vehicle: Klucel (hydroxypropylcellulose) (HPC)",93 % of control
COc1cc2c(c(OC)c1OC)-c1cc3c(cc1C(OC(C)=O)C1COC(=O)C1C2)OCO3 (centres undefined),T/C,"dose: 0.5 mg/kg/injection, schedule: Q04DX002 (ip), vehicle: acetone",97 % of control and 104 % of control
same,T/C,"dose: 1.0 mg/kg/injection, schedule: Q04DX002 (ip), vehicle: acetone",102 % of control and 94 % of control
same,T/C,"dose: 2.0 mg/kg/injection, schedule: Q04DX002 (ip), vehicle: acetone",97 % of control and 104 % of control
COC1NC(=O)N(C)N(C)C1=O (centres undefined),T/C,[13],100 % of control
same,T/C,[14],99 % of control
same,T/C,"dose: 200.0 mg/kg/injection, schedule: Q01DX005 (ip), vehicle: saline",100 % of control
O=C1CCCC2=C1c1cc3c(cc1CCN2)OCO3,T/C,"dose: 25.0 mg/kg/injection, schedule: Q04DX002 (ip), vehicle: saline with Tween-80",101 % of control
same,T/C,"dose: 50.0 mg/kg/injection, schedule: Q04DX002 (ip), vehicle: saline with Tween-80",96 % of control
same,T/C,"dose: 100.0 mg/kg/injection, schedule: Q04DX002 (ip), vehicle: saline with Tween-80",94 % of control and 97 % of control
CCOc1c(N=Nc2ccc(C)cc2)c(C)nn1C(=S)SC,T/C,"dose: 60.0 mg/kg/injection, schedule: Q01DX005 (ip), vehicle: Klucel + Tween-80",100 % of control
same,T/C,"dose: 120.0 mg/kg/injection, schedule: Q01DX005 (ip), vehicle: Klucel + Tween-80",94 % of control
same,T/C,"dose: 240.0 mg/kg/injection, schedule: Q01DX005 (ip), vehicle: Klucel + Tween-80",100 % of control
CCCCCCCCCCCCC(=O)CCCCC(=O)OC1OCC23OC2C2CC(C)(C)CC2C2(C)CC123 (centres undefined),T/C,"dose: 10.0 mg/kg/injection, schedule: Q01DX005 (ip), vehicle: olive oil, sesame oil, peanut oil",105 % of control
same,T/C,"dose: 20.0 mg/kg/injection, schedule: Q01DX005 (ip), vehicle: olive oil, sesame oil, peanut oil",95 % of control
same,T/C,"dose: 40.0 mg/kg/injection, schedule: Q01DX005 (ip), vehicle: olive oil, sesame oil, peanut oil",101 % of control
same,T/C,"dose: 80.0 mg/kg/injection, schedule: Q01DX005 (ip), vehicle: olive oil, sesame oil, peanut oil",94 % of control
CCOc1c(Cc2ccccc2)c(=O)nc2c(-c3ccccc3)cncn12,T/C,[4],101 % of control
same,T/C,[5],86 % of control and 90 % of control
same,T/C,[6],92 % of control
same,T/C,[7],87 % of control
Cc1cc2cc(CN)ccc2n1C,T/C,"dose: 100.0 mg/kg/injection, schedule: Q01DX001 (ip), vehicle: Klucel (hydroxypropylcellulose) (HPC)",103 % of control
CC(C)Cn1c(Cl)c(C=O)c2ccccc21,T/C,[10],101 % of control
same,T/C,[11],97 % of control
same,T/C,[12],90 % of control
CC(NC(=O)c1ccc(Cl)cc1Cl)c1ccccc1 (centres undefined),T/C,"dose: 50.0 mg/kg/injection, schedule: Q01DX001 (ip), vehicle: other",98 % of control
same,T/C,"dose: 100.0 mg/kg/injection, schedule: Q01DX001 (ip), vehicle: other",97 % of control
same,T/C,"dose: 200.0 mg/kg/injection, schedule: Q01DX001 (ip), vehicle: other",96 % of control
same,T/C,"dose: 400.0 mg/kg/injection, schedule: Q01DX001 (ip), vehicle: other",94 % of control
C/[N+]([O-])=N\Nc1ccccc1SCCSc1ccccc1N/N=[N+](\C)[O-],T/C,"dose: 60.0 mg/kg/injection, schedule: Q01DX005 (ip), vehicle: Klucel (hydroxypropylcellulose) (HPC)",91 % of control
same,T/C,"dose: 120.0 mg/kg/injection, schedule: Q01DX005 (ip), vehicle: Klucel (hydroxypropylcellulose) (HPC)",89 % of control
